Results from patent US5043332A, “Novel 11β-substituted -19-nor-steriods” (priority 1981, dated 1991).

Biological target: T1, Gluocorticoid receptor of thymus of rats (Rattus norvegicus, UniProt P06536)
T1 construct: The thymus were removed and homogenized at 0° C; from tissue; host or cells: rat thymus, 105,000 g supernatant (adrenalectomized male Sprague-Dawley rats)
T1 sequence (P06536 1-795): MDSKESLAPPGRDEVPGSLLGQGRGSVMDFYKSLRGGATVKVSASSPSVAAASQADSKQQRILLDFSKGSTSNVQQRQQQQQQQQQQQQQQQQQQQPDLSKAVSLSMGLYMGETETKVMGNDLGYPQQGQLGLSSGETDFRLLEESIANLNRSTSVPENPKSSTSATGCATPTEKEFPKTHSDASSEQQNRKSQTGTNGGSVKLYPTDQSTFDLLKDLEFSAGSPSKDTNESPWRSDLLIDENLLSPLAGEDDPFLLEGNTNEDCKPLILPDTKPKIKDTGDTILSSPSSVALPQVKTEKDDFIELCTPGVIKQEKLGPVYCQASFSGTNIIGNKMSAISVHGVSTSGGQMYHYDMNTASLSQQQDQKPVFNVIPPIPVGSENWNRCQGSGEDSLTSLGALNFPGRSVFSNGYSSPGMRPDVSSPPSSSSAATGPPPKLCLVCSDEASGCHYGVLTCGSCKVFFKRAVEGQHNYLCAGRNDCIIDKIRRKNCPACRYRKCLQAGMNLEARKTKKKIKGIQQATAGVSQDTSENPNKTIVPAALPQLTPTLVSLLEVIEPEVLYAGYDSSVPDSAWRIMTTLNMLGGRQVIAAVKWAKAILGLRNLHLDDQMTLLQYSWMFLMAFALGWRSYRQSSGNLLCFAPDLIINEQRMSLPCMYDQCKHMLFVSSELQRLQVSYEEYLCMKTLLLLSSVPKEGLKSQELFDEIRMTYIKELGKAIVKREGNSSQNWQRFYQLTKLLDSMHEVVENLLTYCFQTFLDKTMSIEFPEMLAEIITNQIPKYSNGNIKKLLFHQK
Experiment: Glucocorticoid receptor binding (displacement of tritiated dexamethasone)
Conditions: for affinity for glucocorticoid receptors (in words): conclusion
Experimental: D. Gluocorticoid receptor of thymus of rats
Male Sprague-Dawley EPOS rats weighing 160 to 200 g were surrenalectomized and the animals were killed 4 to 8 days later. The thymus were removed and homogenized at 0° C. in a buffered TS solution of 10 mM, Tris, 0.25M of Saccharose, 2 mM of dithiothreitol HCl for a pH of 7.4 using a polytetrafluoroethylene-glass Potter at a rate of 1 g of tissue per 10 ml of TS. […] The concentration of tied tritiated dexamethasone (B) was measured for each incubate by the adsorption on carbon-dextran technique.
The calculation of the relative affinity of […] (ARL) was identical for all of the above receptor tests. One traced the following two curves: the percentage of tied tritiated hormone B/T as a function of the logarithm of the cold hormone concentration and B/T as a function of the logarithm of the concentration of the cold test product. One determined the line of the equation. [formula]
The intersection of the I50 line and the curves permits one to determine the concentrations of the cold hormone of the reference (CH) and the cold test compound (CX) which inhibit by 50% the tieing of tritiated hormone with the receptor. The relative affinity of tieing (ARL) of the test product was determined by the equation: [formula]

[1] = second table, incubation 4 H at 0° C.
[2] = second table, incubation 24 H at 0° C.

SMILES	relative affinity of tieing (ARL), Glucocorticoid (incubation 4 H at 0° C.)	relative affinity of tieing (ARL), Glucocorticoid (incubation 24 H at 0° C.)	affinity for glucocorticoid receptors (in words)	relative affinity of tieing (ARL), Glucocorticoid [1]	relative affinity of tieing (ARL), Glucocorticoid [2]
CC#C[C@]1(OC(C)=O)CC[C@H]2[C@@H]3CCc4cc(O)ccc4[C@H]3[C@@H](c3ccc(N(C)C)cc3)C[C@@]21C [2 (17 OAc), 11β-(4-dimethylaminophenyl)-17α-(prop-1-ynyl)-17β-acetoxy-Δ^1,3,5(10) -estratriene-3-ol]	58	100			
CC#C[C@]1(O)CC[C@H]2[C@@H]3CCC4=CC(=O)[C@H](C)CC4=C3[C@@H](c3ccc(N(C)C)cc3)C[C@@]21C [5 (2α), 2α-methyl-11β-(4-dimethylaminophenyl)-17α-(prop-1-ynyl)-Δ^4,9-estradiene-17β-ol-3-one]	214	255			
CC#C[C@]1(O)CC[C@H]2[C@@H]3CCC4=CC(=O)[C@@H](C)CC4=C3[C@@H](c3ccc(N(C)C)cc3)C[C@@]21C [5 (2β), 2-methyl-11β-(4-dimethylaminophenyl)-17α-(prop-1-ynyl)-Δ^4,9-estradiene-17β-ol-3-one]	224	299			
CC#C[C@]1(O)CC[C@H]2[C@@H]3CCC4=CC(=O)C(C)(C)CC4=C3[C@@H](c3ccc(N(C)C)cc3)C[C@@]21C [Example 1, 2,2-dimethyl-11β-(4-dimethylaminophenyl)-17α-(prop-1-ynyl)-Δ^4,9-estradiene-17β-ol-3-one]	97	38			
CC#C[C@]1(O)CC[C@H]2[C@@H]3CCC4=CC(=O)[C@H](C)CC4=C3[C@@H](c3ccc(N(C)C)cc3)C[C@@]21C [Example 5, 2α-methyl-11β-(4-dimethylaminophenyl)-17α-(prop-1-ynyl)-Δ^4,9-estradiene-17β-ol-3-one]			very remarkable affinity		
CC#C[C@]1(O)CC[C@H]2[C@@H]3CCC4=CC(=O)C(C#N)(C#N)CC4=C3[C@@H](c3ccc(N(C)C)cc3)C[C@@]21C [Example 9, 2,2-dicyano-11β-(4-dimethylaminophenyl)-17α-(prop-1-ynyl)-Δ^4,9-estradiene-17β-ol-3-one]	14	7			
CC#C[C@]1(O)CC[C@H]2[C@@H]3CCC4=C(CCC(=O)C4)[C@H]3[C@@H](c3ccc(N(C)C)cc3)C[C@@]21C [Example 10, 11β-(4-dimethylaminophenyl)-17α-(prop-1-ynyl)-Δ^5(10) -estrene-17β-ol-3-one]	83	115			
C#C[C@@]1(O)CC[C@H]2[C@@H]3CCC4=CC(=O)CCC4=C3[C@@H](c3ccc(N(C)C)cc3)C[C@@]21C [Example 21, 11β-[4-(N,N-dimethylamino)-phenyl]-17β-ethynyl-Δ^4,9-estradiene-17α-ol-3-one]				171	118
C=C(C)C#C[C@]1(O)CC[C@H]2[C@@H]3CCC4=CC(=O)CCC4=C3[C@@H](c3ccc(N(C)C)cc3)C[C@@]21C [Example 23, 11β-[4-(N,N-dimethylamino)-phenyl]-23-methyl-19,21-dinor-17α-Δ^4,9,23-cholatriene-20-yn-17β-ol-3-one]				212	167
CN(C)c1ccc([C@H]2C[C@@]3(C)[C@@H](CC[C@@]3(O)C#CCl)[C@@H]3CCC4=CC(=O)CCC4=C32)cc1 [Example 25, 11β-[4-(N,N-dimethylamino)-phenyl]-21-chloro-19-nor-17α-Δ^4,9-pregnadiene-20-yne-17β-ol-3-one]			very remarkable affinity	254	292
C[C@]12C[C@H](c3ccc([N+](C)(C)[O-])cc3)C3=C4CCC(=O)C=C4CC[C@H]3[C@@H]1CC[C@@]2(O)C#CCl [Example 26, N-oxide of 11β-[4-(N,N-dimethylamino)-phenyl]-21-chloro-19-nor-17α-Δ^4,9-pregnadiene-20-yne-17β-ol-3-one]				9	14
C[C@]12C[C@H](c3ccc([N+](C)(C)[O-])cc3)[C@]34O[C@]35CCC(=O)C=C5CC[C@H]4[C@@H]1CC[C@@]2(O)C#CCl [Example 27, N-oxide of 11β-[4-(N,N-dimethylamino)-phenyl]-9α,10α-epoxy-21-chloro-19-nor-17α-Δ^4-pregnene-20-yne-17β-ol-3-one]				5,3	6,2
CN(C)c1ccc([C@H]2C[C@@]3(C)[C@@H](CC[C@@]3(O)C#Cc3ccccc3)[C@@H]3CCC4=CC(=O)CCC4=C32)cc1 [Example 29, 11β-[4-(N,N-dimethylamino)-phenyl]-21-phenyl-19-nor-17α-Δ^4,9-pregnadiene-20-yne-17β-ol-3-one]				46	94
C#C[C@]1(O)CC[C@H]2[C@@H]3CCC4=CC(=O)CCC4=C3[C@@H](c3ccc(N(C)C)cc3)C[C@@]21C [Example 32, 11β-[4-(N,N-dimethylamino)-phenyl]-17α-ethynyl-Δ^4,9-estradiene-17β-ol-3-one]			very remarkable affinity	279	235
CC#C[C@]1(O)CC[C@H]2[C@@H]3CCC4=CC(=O)CCC4=C3[C@@H](c3ccc([N+](C)(C)[O-])cc3)C[C@@]21C [Example 35, N-oxide of 11β-[4-(N,N-dimethylamino)-phenyl]-17α-(prop-1-ynyl)-Δ^4,9-estradiene-17β-ol-3-one]				7,8	5
C=CC[C@]1(O)CC[C@H]2[C@@H]3CCC4=CC(=O)CCC4=C3[C@@H](c3ccc(N(C)C)cc3)C[C@@]21C [Example 37, 11β-[4-(N,N-dimethylamino)-phenyl]-17α-(prop-2-enyl)-Δ^4,9-estradien-17β-ol-3-one]			very remarkable affinity	178	221
CN(C)c1ccc([C@H]2C[C@@]3(C)[C@@H](CC[C@@]3(O)C#C[Si](C)(C)C)[C@@H]3CCC4=CC(=O)CCC4=C32)cc1 [Example 44, 11β-[4-(N,N-dimethylamino)-phenyl]-21-trimethylsilyl-19-nor-17α-Δ^4,9-pregnadiene-20-yne-17β-ol-3-one]				79	104
